Laboratory results as given in ChEMBL document CHEMBL5352418, “Molecular networking assisted discovery and combinatorial biosynthesis of new antimicrobial pleuromutilins” (Eur J Med Chem, 2022).
≈ marks a conversion by molar mass, not a printed value. Calls of active or inactive are those of the source. No cut-off for these calls is given here.

Legend:
[1] = system: RAW264.7; assay: Immunostimulatory activity in mouse RAW264.7 cells assessed as increase in ROS production by measuring fluorescence intensity at 1 uM incubated for 24 hrs by DCFH-DA staining based fluorescence microplate reader assay; type: functional, cell-based
[2] = system: RAW264.7; assay: Immunostimulatory activity in mouse RAW264.7 cells assessed as increase in cell viability at 1 uM incubated for 48 hrs by CCK-8 assay; type: functional
[3] = system: RAW264.7; assay: Cytotoxicity activity mouse RAW264.7 cells assessed as reduction in cell viability at upto 100 uM incubated for 48 hrs by CCK-8 assay; type: toxicity, cell-based; settings: raw264.7, 48 h
[4] = system: Staphylococcus aureus; assay: Antibacterial activity against methicillin-resistant Staphylococcus aureus clinical isolate assessed as bacterial growth inhibition by CLSI protocol based broth microdilution method; type: functional
[5] = system: Enterococcus faecalis; assay: Antibacterial activity against vancomycin-resistant Enterococcus faecalis clinical isolate assessed as bacterial growth inhibition by CLSI protocol based broth microdilution method; type: functional
[6] = system: RAW264.7; assay: Immunostimulatory activity in mouse RAW264.7 cells assessed as increase in TNF-alpha production level at 1 uM incubated for 24 hrs by ELISA; type: functional, cell-based
[7] = system: RAW264.7; assay: Immunostimulatory activity in mouse RAW264.7 cells assessed as increase in NO production at 1 uM incubated for 24 hrs by Griess method; type: functional, cell-based
[8] = system: Escherichia coli; assay: Antibacterial activity against Escherichia coli OP50 assessed as bacterial growth inhibition at 20 uM by CLSI protocol based broth microdilution method; type: functional; settings: read-out: GI
[9] = system: RAW264.7; assay: Immunostimulatory activity in mouse RAW264.7 cells assessed as increase in cell viability at 0.078 to 10 uM incubated for 48 hrs by CCK-8 assay; type: functional, cell-based; settings: dose 0.078-10 µM
[10] = system: Pseudomonas aeruginosa; assay: Antibacterial activity against Pseudomonas aeruginosa PA01 assessed as bacterial growth inhibition at 20 uM by CLSI protocol based broth microdilution method; type: functional; settings: read-out: GI
[11] = system: RAW264.7; assay: Immunostimulatory activity in mouse RAW264.7 cells assessed as increase in IL-6 production level at 1 uM incubated for 24 hrs by ELISA; type: functional, cell-based
[12] = system: Escherichia coli; assay: Antibacterial activity against enteropathogenic Escherichia coli […] assessed as bacterial growth inhibition at 20 uM by CLSI protocol based broth microdilution method; type: functional; settings: read-out: GI

Structure (SMILES)	Activity [1]	Activity [2]	Activity [3]	MIC [4] [µM]	MIC [5] [µM]	Activity [6]	Activity [7]	inhibition of growth at 20 µM [8] [%]	Activity [9]	inhibition of growth at 20 µM [10] [%]	Activity [11]	inhibition of growth at 20 µM [12] [%]
C=C[C@]1(C)C[C@@H](O)[C@@]2(C)C3C(=O)CC[C@@]3(CC[C@H]2C)[C@@H](C)[C@@H]1O (stereo partly specified)	Active	inactive	Non-Toxic	6.25 (≈ 2 µg/mL)	5 (≈ 1.6 µg/mL)	–	–	–	–	–	–	–
C=C[C@@]1(C)C[C@H](C)[C@]23CC[C@@H](O)C2[C@@](C)([C@H](C)CC3)[C@H](OC(C)=O)C1 (stereo partly specified)	–	inactive	Non-Toxic	> 20	2.5 (≈ 0.871 µg/mL)	Active	–	–	–	–	–	–
C=C[C@]1(C)C[C@@H](OC(=O)CO[C@H]2O[C@H](CO)[C@@H](O)[C@H](O)[C@H]2O)[C@@]2(C)C3C(=O)CCC3(CC[C@H]2C)[C@@H](C)[C@@H]1O (single isomer, unassigned)	–	inactive	Non-Toxic	> 20	> 20	Active	Active	21	–	–	–	–
C=C[C@]1(C)C[C@@H](O)[C@@]2(C)C3[C@H](O)CC[C@@]3(CC[C@H]2C)[C@@H](C)[C@@H]1O (stereo partly specified)	–	inactive	Non-Toxic	12.5 (≈ 4.03 µg/mL)	20 (≈ 6.45 µg/mL)	–	–	–	–	–	–	–
C=C[C@]1(C)C[C@@H](OC(C)=O)[C@@]2(C)C3C(=O)CC[C@@]3(CC[C@H]2C)[C@@H](C)[C@@H]1O (stereo partly specified)	Active	60%	Non-Toxic	0.39 (≈ 0.141 µg/mL)	2.5 (≈ 0.906 µg/mL)	–	–	61	Dose-Dependent Effect	51	–	–
C=C[C@]1(C)C[C@@H](O)[C@@]2(C)C3=CC(=O)C[C@@]3(CC[C@H]2C)[C@@H](C)[C@@H]1O	–	inactive	Non-Toxic	> 20	> 20	Active	–	–	–	–	Active	–
C=C[C@]1(C)C[C@@H](OC(=O)CO)[C@@]2(C)C3C(=O)[C@H](O)CC3(CC[C@H]2C)[C@@H](C)[C@@H]1O (single isomer, unassigned)	–	inactive	Non-Toxic	3.12 (≈ 1.23 µg/mL)	1.25 (≈ 0.493 µg/mL)	Active	Active	70	–	–	Active	52
C=C[C@]1(C)C[C@@H](OC(C)=O)[C@@]2(C)C3[C@H](O)CC[C@@]3(CC[C@H]2C)[C@@H](C)[C@@H]1O (stereo partly specified)	–	inactive	Non-Toxic	6.25 (≈ 2.28 µg/mL)	0.625 (≈ 0.228 µg/mL)	Active	–	20	–	18	–	–
